{"source": "ChEMBL document CHEMBL4308824", "about": "“Design of Small Molecule Autophagy Modulators: A Promising Druggable Strategy” (J Med Chem, 2018)", "key": {"[1]": {"assay": "Dissociation constant, pKa of compound", "type": "physicochemical"}, "BT-474": {"test_system": "BT-474", "assay": "Cytotoxicity against human BT474 cells assessed as reduction in cell viability after 48 hrs by MTT assay", "type": "functional, cell-based", "details": "BT-474, 48 h"}, "[2]": {"target": "T1, Serine/threonine-protein kinase ULK2 (Homo sapiens, UniProt Q8IYT8)", "T1 sequence (Q8IYT8 whole entry)": "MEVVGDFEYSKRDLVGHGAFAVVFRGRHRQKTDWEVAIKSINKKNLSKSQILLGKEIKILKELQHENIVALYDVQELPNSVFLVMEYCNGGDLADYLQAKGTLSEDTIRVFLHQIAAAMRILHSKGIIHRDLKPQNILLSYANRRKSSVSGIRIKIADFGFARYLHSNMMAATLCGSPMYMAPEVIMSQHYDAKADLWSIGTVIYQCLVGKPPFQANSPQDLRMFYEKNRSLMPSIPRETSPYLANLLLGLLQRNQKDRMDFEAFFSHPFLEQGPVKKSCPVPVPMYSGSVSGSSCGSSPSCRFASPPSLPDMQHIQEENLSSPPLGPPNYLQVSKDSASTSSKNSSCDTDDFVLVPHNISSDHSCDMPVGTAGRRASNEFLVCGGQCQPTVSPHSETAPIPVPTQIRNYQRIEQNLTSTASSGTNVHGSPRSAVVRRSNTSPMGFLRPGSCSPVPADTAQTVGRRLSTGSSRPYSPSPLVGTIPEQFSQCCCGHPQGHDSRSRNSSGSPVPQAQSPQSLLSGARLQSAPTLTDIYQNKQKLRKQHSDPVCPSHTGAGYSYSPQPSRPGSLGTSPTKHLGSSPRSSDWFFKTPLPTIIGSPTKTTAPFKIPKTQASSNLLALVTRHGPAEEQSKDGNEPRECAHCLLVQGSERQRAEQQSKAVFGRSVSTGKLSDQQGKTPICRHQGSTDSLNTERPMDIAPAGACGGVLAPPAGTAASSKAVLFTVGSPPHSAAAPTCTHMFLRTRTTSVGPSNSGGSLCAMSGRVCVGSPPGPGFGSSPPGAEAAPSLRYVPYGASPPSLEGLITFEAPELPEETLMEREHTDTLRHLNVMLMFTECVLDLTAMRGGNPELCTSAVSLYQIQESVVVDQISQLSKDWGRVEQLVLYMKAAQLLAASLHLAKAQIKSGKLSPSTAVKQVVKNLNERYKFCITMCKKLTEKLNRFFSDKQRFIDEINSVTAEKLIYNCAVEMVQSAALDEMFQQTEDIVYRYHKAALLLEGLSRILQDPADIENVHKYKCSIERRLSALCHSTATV", "assay": "Inhibition of ULK2 (unknown origin)"}, "[3]": {"target": "T2, Serine/threonine-protein kinase ULK1 (Homo sapiens, UniProt O75385)", "T2 sequence (O75385 whole entry)": "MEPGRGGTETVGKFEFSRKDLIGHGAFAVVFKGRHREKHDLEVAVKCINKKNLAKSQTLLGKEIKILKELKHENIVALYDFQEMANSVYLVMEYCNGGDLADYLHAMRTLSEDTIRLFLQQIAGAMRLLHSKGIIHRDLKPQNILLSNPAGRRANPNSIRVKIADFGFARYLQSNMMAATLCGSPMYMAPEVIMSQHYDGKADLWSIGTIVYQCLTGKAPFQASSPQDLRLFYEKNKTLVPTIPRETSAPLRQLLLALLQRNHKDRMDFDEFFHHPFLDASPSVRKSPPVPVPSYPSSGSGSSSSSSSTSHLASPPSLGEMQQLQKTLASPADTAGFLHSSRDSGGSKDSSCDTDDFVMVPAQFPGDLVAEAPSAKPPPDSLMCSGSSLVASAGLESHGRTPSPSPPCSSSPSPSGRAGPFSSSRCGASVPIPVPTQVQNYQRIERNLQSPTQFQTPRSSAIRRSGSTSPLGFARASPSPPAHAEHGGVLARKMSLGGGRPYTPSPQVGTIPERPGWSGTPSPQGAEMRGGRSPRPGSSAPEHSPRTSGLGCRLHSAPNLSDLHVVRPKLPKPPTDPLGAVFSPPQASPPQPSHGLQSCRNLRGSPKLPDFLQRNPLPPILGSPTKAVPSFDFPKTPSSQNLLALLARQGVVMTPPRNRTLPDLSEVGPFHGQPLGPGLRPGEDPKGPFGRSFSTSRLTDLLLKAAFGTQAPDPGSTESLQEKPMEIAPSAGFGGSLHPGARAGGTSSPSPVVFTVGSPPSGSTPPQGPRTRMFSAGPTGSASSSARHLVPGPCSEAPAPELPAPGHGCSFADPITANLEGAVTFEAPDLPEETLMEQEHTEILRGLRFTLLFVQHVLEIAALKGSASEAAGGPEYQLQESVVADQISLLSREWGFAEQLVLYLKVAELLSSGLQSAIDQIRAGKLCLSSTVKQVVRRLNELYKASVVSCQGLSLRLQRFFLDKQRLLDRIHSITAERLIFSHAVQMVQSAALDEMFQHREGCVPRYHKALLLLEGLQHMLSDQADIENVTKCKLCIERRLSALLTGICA"}, "[4]": {"target": "T1, Serine/threonine-protein kinase ULK2"}, "mTORC1": {"target": "mTORC1 (Homo sapiens, UniProt P42345)", "type": "protein-complex assay"}, "mTORC2": {"target": "mTORC2 (Homo sapiens, UniProt P42345)", "type": "protein-complex assay"}, "[5]": {"target": "AMP-activated protein kinase (AMPK) alpha-1/beta-1/gamma-1 (Homo sapiens, UniProt P54619+Q13131+Q9Y478)", "sequence (P54619 whole entry)": "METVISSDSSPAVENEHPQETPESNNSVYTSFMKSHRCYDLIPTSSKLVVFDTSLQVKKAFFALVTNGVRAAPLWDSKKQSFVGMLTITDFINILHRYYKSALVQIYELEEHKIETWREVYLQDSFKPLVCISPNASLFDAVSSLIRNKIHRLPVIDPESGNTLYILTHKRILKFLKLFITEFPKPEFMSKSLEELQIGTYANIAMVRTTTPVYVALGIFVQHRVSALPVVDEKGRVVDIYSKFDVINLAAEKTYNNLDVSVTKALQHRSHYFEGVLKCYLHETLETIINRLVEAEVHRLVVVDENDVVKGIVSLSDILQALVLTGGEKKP", "sequence (Q9Y478 whole entry)": "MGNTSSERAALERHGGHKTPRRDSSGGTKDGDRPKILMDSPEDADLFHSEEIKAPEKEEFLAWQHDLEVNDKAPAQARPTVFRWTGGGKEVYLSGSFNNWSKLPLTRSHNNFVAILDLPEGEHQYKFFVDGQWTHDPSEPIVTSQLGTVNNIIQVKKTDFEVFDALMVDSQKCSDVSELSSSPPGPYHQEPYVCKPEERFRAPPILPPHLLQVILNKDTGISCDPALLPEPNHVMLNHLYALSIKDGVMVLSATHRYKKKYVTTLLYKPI", "sequence (Q13131 whole entry)": "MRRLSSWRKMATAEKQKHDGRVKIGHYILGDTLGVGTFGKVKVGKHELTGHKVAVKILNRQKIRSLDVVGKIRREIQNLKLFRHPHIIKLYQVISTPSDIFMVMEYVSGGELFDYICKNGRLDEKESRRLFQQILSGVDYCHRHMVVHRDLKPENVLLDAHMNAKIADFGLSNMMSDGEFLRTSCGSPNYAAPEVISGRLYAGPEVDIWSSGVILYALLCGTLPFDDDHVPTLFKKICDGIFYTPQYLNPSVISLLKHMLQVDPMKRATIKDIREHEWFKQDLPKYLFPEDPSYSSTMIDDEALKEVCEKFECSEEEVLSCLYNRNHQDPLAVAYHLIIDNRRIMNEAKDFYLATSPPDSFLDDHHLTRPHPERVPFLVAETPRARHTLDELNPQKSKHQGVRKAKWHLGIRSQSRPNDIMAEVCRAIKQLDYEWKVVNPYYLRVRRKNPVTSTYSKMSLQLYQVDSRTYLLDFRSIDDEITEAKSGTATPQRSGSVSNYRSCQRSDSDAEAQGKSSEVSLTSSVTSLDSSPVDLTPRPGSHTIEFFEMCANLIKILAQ", "assay": "Activation of recombinant human AMPK alpha1/beta1/gamma1 (unknown origin) using SAMS peptide as substrate preincubated for 20 mins followed by substrate and gamma-[32]P-ATP addition and measured after 30 mins by liquid scintillation counting method", "type": "protein-complex assay"}, "MDA-MB-231": {"test_system": "MDA-MB-231", "assay": "Cytotoxicity against human MDA-MB-231 cells assessed as reduction in cell viability at 750 nM after 24 hrs by MTT assay relative to control", "type": "functional"}, "[6]": {"target": "T3, Phosphatidylinositol 4,5-bisphosphate 3-kinase catalytic subunit delta isoform (Homo sapiens, UniProt O00329)", "T3 sequence (O00329 whole entry)": "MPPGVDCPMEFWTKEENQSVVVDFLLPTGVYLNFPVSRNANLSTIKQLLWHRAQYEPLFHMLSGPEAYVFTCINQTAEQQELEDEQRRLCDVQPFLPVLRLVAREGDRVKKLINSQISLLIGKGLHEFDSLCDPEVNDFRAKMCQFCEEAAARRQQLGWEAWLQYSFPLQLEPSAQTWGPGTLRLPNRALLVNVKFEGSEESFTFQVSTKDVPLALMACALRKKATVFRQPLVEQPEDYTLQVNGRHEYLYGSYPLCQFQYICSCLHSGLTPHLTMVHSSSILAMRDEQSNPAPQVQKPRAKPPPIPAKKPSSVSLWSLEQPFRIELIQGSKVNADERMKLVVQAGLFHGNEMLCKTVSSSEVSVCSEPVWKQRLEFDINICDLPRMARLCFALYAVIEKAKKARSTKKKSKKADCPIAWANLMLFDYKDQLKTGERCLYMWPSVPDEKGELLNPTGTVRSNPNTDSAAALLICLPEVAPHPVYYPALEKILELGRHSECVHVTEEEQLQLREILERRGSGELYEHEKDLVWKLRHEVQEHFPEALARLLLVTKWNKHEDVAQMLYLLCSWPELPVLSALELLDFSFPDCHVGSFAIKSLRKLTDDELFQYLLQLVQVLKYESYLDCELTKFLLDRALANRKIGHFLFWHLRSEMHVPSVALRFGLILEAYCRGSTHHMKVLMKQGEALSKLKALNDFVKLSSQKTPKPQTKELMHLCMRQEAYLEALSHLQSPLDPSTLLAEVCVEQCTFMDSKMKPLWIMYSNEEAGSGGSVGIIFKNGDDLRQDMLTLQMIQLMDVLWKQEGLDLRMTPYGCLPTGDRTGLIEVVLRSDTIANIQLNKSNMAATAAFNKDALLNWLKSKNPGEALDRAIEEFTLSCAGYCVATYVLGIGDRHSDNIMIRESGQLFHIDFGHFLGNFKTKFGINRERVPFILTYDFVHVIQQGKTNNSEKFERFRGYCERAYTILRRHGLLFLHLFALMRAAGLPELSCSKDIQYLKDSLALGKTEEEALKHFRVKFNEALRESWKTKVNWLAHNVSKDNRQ", "assay": "Inhibition of PI3K p110delta (unknown origin)"}, "[7]": {"target": "Phosphatidylinositol 4,5-bisphosphate 3-kinase catalytic subunit alpha isoform (Homo sapiens, UniProt P42336)", "sequence (P42336 whole entry, canonical isoform)": "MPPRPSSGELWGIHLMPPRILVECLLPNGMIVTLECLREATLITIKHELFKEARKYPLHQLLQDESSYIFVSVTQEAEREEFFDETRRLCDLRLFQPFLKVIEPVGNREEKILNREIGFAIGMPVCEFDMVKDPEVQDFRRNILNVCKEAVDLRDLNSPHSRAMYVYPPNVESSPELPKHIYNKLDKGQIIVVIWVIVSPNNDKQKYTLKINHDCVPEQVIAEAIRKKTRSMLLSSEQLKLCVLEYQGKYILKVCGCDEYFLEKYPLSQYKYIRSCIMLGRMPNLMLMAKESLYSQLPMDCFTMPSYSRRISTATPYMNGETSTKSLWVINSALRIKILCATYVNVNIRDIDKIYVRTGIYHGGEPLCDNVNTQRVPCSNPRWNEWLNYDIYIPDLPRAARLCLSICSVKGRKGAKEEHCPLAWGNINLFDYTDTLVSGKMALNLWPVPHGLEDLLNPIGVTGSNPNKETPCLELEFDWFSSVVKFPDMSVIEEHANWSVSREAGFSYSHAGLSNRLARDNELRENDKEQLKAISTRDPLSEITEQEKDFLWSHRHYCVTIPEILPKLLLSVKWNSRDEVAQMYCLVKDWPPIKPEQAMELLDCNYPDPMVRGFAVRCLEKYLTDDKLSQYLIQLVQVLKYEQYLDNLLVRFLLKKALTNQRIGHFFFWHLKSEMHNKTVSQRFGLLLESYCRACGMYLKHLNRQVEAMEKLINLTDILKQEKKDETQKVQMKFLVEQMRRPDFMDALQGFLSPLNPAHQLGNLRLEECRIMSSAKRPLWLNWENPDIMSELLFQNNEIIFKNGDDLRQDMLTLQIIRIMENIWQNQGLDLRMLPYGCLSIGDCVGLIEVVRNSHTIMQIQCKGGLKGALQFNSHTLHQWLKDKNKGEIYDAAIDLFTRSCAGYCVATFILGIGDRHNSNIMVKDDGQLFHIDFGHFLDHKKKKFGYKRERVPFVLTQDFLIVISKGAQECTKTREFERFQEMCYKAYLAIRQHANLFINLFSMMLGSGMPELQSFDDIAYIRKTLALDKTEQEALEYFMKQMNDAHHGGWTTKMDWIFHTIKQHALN", "assay": "Inhibition of PI3K p110alpha (unknown origin)"}, "[8]": {"target": "Phosphatidylinositol 4,5-bisphosphate 3-kinase catalytic subunit beta isoform (Homo sapiens, UniProt P42338)", "sequence (P42338 whole entry, canonical isoform)": "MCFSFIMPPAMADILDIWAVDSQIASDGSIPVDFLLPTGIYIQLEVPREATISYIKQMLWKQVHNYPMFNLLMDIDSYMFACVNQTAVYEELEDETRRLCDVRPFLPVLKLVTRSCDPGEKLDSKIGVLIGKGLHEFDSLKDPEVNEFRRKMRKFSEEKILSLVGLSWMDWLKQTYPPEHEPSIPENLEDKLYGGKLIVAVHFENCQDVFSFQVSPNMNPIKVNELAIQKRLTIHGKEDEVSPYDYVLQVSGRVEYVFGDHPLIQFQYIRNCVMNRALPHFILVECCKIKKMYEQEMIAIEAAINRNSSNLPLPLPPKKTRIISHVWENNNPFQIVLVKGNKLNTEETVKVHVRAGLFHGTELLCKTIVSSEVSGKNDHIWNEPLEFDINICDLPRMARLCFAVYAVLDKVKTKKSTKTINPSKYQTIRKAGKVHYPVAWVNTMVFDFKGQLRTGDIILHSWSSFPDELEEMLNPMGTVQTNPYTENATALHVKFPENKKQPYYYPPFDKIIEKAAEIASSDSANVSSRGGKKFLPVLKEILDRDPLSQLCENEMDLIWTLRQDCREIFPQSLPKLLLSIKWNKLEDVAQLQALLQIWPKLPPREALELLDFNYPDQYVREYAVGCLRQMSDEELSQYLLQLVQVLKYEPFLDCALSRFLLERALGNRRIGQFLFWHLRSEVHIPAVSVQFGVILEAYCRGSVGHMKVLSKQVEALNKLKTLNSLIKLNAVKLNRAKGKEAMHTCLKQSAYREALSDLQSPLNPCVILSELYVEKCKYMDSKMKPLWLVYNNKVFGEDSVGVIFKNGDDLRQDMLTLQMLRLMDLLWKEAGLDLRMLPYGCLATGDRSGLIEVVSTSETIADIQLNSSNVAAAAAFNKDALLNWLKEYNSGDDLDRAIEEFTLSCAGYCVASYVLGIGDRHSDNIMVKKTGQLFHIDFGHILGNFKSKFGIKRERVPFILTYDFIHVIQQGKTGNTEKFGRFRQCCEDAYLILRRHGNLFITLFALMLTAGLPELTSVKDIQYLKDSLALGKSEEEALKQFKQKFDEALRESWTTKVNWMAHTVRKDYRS", "assay": "Inhibition of PI3K p110beta (unknown origin)"}, "[9]": {"target": "Phosphatidylinositol 4,5-bisphosphate 3-kinase catalytic subunit gamma isoform (Homo sapiens, UniProt P48736)", "sequence (P48736 whole entry, canonical isoform)": "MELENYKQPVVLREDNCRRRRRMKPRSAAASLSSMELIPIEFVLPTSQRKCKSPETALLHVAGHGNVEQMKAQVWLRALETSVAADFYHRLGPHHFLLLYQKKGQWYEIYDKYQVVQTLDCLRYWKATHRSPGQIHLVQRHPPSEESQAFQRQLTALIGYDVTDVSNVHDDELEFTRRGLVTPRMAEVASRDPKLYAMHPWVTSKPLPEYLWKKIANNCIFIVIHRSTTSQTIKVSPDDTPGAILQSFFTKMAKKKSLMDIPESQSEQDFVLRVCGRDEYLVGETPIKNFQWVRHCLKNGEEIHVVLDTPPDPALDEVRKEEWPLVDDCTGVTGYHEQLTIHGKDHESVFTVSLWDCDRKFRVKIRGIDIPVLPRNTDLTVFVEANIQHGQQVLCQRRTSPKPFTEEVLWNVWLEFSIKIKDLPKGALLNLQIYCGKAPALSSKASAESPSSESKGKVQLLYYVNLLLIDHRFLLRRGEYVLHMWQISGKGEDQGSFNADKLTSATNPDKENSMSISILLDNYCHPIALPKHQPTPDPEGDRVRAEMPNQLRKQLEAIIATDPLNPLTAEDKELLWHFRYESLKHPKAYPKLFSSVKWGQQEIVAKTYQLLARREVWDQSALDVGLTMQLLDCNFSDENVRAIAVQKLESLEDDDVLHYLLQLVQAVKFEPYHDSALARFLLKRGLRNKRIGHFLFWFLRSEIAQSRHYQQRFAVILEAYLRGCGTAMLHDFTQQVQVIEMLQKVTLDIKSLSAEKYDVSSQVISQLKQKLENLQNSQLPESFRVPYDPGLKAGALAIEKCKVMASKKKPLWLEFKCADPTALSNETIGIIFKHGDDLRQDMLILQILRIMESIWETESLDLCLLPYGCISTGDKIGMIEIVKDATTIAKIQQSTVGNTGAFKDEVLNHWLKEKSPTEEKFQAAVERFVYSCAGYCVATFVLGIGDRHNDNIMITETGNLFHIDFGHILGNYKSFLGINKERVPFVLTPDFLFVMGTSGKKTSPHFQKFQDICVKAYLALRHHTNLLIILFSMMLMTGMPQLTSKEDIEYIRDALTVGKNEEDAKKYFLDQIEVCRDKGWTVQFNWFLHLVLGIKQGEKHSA"}, "CNE-2": {"test_system": "CNE-2", "assay": "Antiproliferative activity against human CNE2 cells after 72 hrs by MTT assay", "type": "functional, cell-based", "details": "CNE-2, 72 h"}, "[10]": {"assay": "Cytotoxicity in human U2OS cells incubated for 24 to 48 hrs by CellTiter Glo assay", "type": "cell-based", "details": "read-out: LD50 (the source's name)"}, "U2OS": {"test_system": "U2OS", "assay": "Inhibition of autophagy in human U2OS cells stably expressing tfLC3", "type": "functional"}}, "note": "Structures can show the parent of a compound that is named as a salt."}
{"compound": "CN1CCN(Cc2cc(CNC3(c4ccccc4F)CCCC3)ccc2O)CC1", "values": [{"measurement": "pKa", "setting": "[1]", "value": "> 7.5"}, {"measurement": "IC50", "setting": "BT-474", "value": "23.5 to 30.1", "unit": "µM"}]}
{"compound": "CNC(=O)c1ccccc1Oc1nc(Nc2cc(OC)c(OC)c(OC)c2)ncc1Br", "values": [{"measurement": "IC50", "setting": "[2]", "value": 0.011, "unit": "µM"}]}
{"compound": "CN1CCc2cc(Nc3ncc(C4CC4)c(NCCCNC(=O)C4CCC4)n3)ccc2C1", "values": [{"measurement": "IC50", "setting": "[3]", "value": 0.0029, "unit": "µM"}, {"measurement": "IC50", "setting": "[4]", "value": 0.0011, "unit": "µM"}]}
{"compound": "O=C(/C=C/c1ccc2c(c1)OCO2)CC1(O)C(=O)Nc2ccccc21", "note": "(centres undefined)", "values": [{"measurement": "IC50", "setting": "mTORC1", "value": "0.001 to 0.005", "unit": "µM"}, {"measurement": "IC50", "setting": "mTORC2", "value": "0.001 to 0.005", "unit": "µM"}]}
{"compound": "COC(=O)Nc1ccc(-c2nc(N3CCOCC3)c3cnn(C4CCN(C(=O)OC)CC4)c3n2)cc1", "values": [{"measurement": "IC50", "setting": "mTORC1", "value": "0.005 to 0.009", "unit": "µM"}, {"measurement": "IC50", "setting": "mTORC2", "value": "0.005 to 0.009", "unit": "µM"}]}
{"compound": "CC1(CN2C(=O)S/C(=C\\c3ccc(NS(=O)(=O)c4ccc([N+](=O)[O-])c(C(F)(F)F)c4)cc3)C2=O)CCCCC1", "values": [{"measurement": "EC50", "setting": "[5]", "value": 0.3, "unit": "µM"}]}
{"compound": "CCN(CC)CCCC(C)Nc1ccnc2cc(Cl)ccc12", "note": "(centres undefined) [CHLOROQUINE]", "values": [{"measurement": "IC50", "setting": "BT-474", "value": "> 1000", "unit": "µM"}]}
{"compound": "COC(=O)Nc1nc2cc(C(=O)c3ccc(F)cc3)ccc2[nH]1", "note": "[FLUBENDAZOLE]", "values": [{"measurement": "Activity", "setting": "MDA-MB-231", "value": 50, "unit": "%"}]}
{"compound": "c1cnc2ccc(Nc3nc(NC4CC4)c4nc[nH]c4n3)cc2c1", "note": "[PUQUITINIB MESYLATE DIHYDRATE]", "values": [{"measurement": "IC50", "setting": "[6]", "value": 0.0028, "unit": "µM"}, {"measurement": "IC50", "setting": "[7]", "value": 0.767, "unit": "µM"}, {"measurement": "IC50", "setting": "[8]", "value": 0.699, "unit": "µM"}, {"measurement": "IC50", "setting": "[9]", "value": 0.0897, "unit": "µM"}, {"measurement": "IC50", "setting": "CNE-2", "value": 5.2, "unit": "µM"}]}
{"compound": "CCN(CC)CCCC(C)Nc1c2ccc(Cl)cc2nc2ccc(OC)cc12", "note": "(centres undefined) [QUINACRINE]", "values": [{"measurement": "CC50", "setting": "[10]", "value": 2.5, "unit": "µM"}, {"measurement": "EC", "setting": "U2OS", "value": 0.2, "unit": "µM"}]}
